From patent US20240300991A1, “NUCLEOSIDE DERIVATIVE HAVING MULTI-TARGET KINASE INHIBITORY ACTIVITY AND PHARMACEUTICAL COMPOSITION FOR PREVENTING AND TREATING CANCER COMPRISING SAME” (FUTURE MEDICINE CO., LTD., priority 2021, published 2024)
pIC50: −log10 of the molar value.

How the values were obtained:
CSNK1D = molecular target: T1, CSNK1D (Homo sapiens, UniProt P48730); assay: Kinase inhibition test (DNA-tagged kinase, affinity resin, qPCR readout); type: binding; parameters: key: (−) indicates no effect; (+) indicates weak inhibitory activity; (++) indicates a moderate level of inhibitory activity; (+++) indicates strong inhibitory activity; details: 1 μM of compound
T1 construct: made in house
Source text: (§1) In order to examine the inhibitory activity of the nucleoside derivatives of the present invention synthesized in the Preparation Examples against kinases, the nucleoside derivatives were confirmed to have inhibitory activity against neurotrophic tyrosine kinase receptor type 1 or tropomyosin receptor kinase A (NTRK1), casein kinase 1 isoform delta (CSNK1D), dual specificity tyrosine-phosphorylation-regulated kinase 1A (DYRK1A), dual specificity tyrosine-phosphorylation-regulated kinase 1B (DYRK1B) and receptor-type tyrosine-protein kinase or fms like tyrosine kinase 3 or cluster of differentiation antigen 135 (CD135) or fetal liver kinase-2 (Flk2) (FLT3).
(§2) The inhibition measurement method is as follows. Most of the kinases were produced by culturing a phage in which BL21 E. coli was tagged with a kinase at 32° C. until lysis, followed by centrifugation and filtration. Further, the kinases were produced using HEK-293 cells. Thereafter, the kinases were DNA tagged for qPCR. After an affinity resin was prepared by stirring a biotin-tagged substrate onto streptavidin-coated beads for 30 minutes, a non-specifically bound substrate was washed with a buffer (SeaBlock (Pierce), 1% BSA, 0.05% Tween 20, 1 mM DTT).
(§3) For a kinase test, the kinase, the substrate, the affinity resin, and a test material dissolved in dimethyl sulfoxide were stirred together in a buffer (20% SeaBlock, 0.17×PBS, 0.05% Tween20, and 6 mM DTT) at room temperature for 1 hour. Thereafter, an affinity substrate was washed with a buffer (1×PBS, 0.05% Tween20), and then suspended in an elution buffer (1×PBS, 0.05% Tween20, 0.5 μM non-biotinylated affinity ligand), and the resulting suspension was stirred. The concentration of the kinase was quantified by qPCR.

DYRK1A = molecular target: T2, DYRK1A (Homo sapiens, UniProt Q13627); assay: as above; type: binding; parameters: key: (−) indicates no effect; (+) indicates weak inhibitory activity; (++) indicates a moderate level of inhibitory activity; (+++) indicates strong inhibitory activity; details: 1 μM of compound
T2 construct: made in house
Source text: as §1, §2, §3

DYRK1B = molecular target: T3, DYRK1B (Homo sapiens, UniProt Q9Y463); assay: as above; type: binding; parameters: key: (−) indicates no effect; (+) indicates weak inhibitory activity; (++) indicates a moderate level of inhibitory activity; (+++) indicates strong inhibitory activity; details: 1 μM of compound
T3 construct: made in house
Source text: as §1, §2, §3

NTRK1 = molecular target: T4, NTRK1 (Homo sapiens, UniProt P04629); assay: as above; type: binding; parameters: key: (−) indicates no effect; (+) indicates weak inhibitory activity; (++) indicates a moderate level of inhibitory activity; (+++) indicates strong inhibitory activity; details: 1 μM of compound
T4 construct: made in house
Source text: as §1, §2, §3

A549 (lung cancer cells) = assay: Inhibitory activity against cancer cells (sulforhodamine B staining); type: cell-based; details: 3 days, SRB staining
Description: (§4) In order to examine the anticancer activity of the nucleoside derivatives of the present invention synthesized in the Preparation Examples, the ICso of each of A549 (lung cancer cells), HCT116 (colon cancer cells), MDA-MB-231 (breast cancer cells), SK-Hep-1 (liver cancer cells), SNU638 (stomach cancer cells) and PC-3 (prostate cancer cells) against cancer cells was measured.
(§5) The test method is as follows. Cells were allowed to stand for 1 day and set as a control on day 0. Further, after a test material was added to the cells, the cells were allowed to stand for 3 days. Thereafter, the cells were stained with 1% acetic acid and 0.4% sulforhodamine B. The stained cells were dried and dissolved in 10 mM Tris (pH 10.0). Absorbance was measured at 515 nm, and the degree of cell division was determined using the following equation. After calculation as Cell division (%)=(average absorbancetest material−average absorbanceday 0)/(average absorbance control-average absorbanceday 0)×100, the degree of cell division was calculated through a non-linear regression analysis using Table Curve 2D v5.01 (Systat Software Inc., San Jose, CA, USA).

[1] = test system: HCT116 (colon cancer cells); assay: as above; type: cell-based; details: 3 days, SRB staining
Description: as §4, §5

[2] = test system: MDA-MB-231 (breast cancer cells); assay: as above; type: cell-based; details: 3 days, SRB staining
Description: as §4, §5

[3] = test system: PC-3 (prostate cancer cells); assay: as above; type: cell-based; details: 3 days, SRB staining
Description: as §4, §5

[4] = test system: SK-Hep-1 (liver cancer cells); assay: as above; type: cell-based; details: 3 days, SRB staining
Description: as §4, §5

[5] = test system: SNU638 (stomach cancer cells); assay: as above; type: cell-based; details: 3 days, SRB staining
Description: as §4, §5

T3 sequence (Q9Y463 whole entry): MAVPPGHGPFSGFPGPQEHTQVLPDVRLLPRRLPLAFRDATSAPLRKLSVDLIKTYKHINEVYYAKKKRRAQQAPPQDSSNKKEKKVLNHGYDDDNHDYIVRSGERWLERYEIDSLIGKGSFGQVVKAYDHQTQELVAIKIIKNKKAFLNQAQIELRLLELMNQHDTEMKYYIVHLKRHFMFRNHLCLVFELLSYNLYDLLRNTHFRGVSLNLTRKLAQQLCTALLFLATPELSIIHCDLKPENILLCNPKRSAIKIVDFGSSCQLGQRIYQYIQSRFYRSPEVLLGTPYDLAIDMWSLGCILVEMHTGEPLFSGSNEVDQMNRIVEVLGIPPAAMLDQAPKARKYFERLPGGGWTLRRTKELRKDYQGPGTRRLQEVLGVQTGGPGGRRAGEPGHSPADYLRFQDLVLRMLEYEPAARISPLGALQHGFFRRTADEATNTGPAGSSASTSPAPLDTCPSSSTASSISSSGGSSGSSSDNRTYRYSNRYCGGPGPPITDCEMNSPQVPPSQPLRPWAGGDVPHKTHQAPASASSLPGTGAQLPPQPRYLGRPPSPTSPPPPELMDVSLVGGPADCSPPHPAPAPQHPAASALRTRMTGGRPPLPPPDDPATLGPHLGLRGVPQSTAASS
T4 sequence (P04629 33-796): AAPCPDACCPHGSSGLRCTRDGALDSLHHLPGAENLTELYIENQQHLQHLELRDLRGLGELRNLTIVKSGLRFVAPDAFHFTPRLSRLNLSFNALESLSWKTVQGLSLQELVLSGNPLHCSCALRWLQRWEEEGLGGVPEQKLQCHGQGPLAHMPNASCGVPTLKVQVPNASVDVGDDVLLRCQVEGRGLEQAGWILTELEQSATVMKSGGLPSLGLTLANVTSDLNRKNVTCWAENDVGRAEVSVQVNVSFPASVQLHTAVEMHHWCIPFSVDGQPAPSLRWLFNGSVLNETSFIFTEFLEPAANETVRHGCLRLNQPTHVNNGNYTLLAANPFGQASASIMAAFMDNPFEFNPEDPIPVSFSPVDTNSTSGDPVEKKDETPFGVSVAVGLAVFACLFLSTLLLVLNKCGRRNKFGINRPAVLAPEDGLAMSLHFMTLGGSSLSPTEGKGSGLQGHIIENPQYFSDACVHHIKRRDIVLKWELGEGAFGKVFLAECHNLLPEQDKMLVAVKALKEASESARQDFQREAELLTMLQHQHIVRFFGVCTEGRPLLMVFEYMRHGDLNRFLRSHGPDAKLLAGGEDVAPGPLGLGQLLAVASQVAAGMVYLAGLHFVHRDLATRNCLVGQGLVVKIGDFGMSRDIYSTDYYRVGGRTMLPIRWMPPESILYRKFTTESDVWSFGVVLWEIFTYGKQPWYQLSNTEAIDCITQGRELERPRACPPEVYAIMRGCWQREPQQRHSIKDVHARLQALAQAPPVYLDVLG
T1 sequence (P48730 whole entry): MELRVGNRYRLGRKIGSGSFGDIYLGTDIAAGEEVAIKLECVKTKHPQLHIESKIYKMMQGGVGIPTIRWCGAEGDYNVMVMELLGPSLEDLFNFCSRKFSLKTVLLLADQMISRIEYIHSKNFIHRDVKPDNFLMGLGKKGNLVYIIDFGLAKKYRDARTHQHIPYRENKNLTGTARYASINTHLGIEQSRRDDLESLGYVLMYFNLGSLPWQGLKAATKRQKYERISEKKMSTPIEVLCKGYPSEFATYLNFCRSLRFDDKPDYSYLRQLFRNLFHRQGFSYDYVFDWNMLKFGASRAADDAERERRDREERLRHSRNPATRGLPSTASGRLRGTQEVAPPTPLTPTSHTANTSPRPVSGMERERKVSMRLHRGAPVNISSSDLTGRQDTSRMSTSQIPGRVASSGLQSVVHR

Structure (SMILES) | CSNK1D inhibitory activity (CSNK1D) | DYRK1A inhibitory activity (DYRK1A) | DYRK1B inhibitory activity (DYRK1B) | NTRK1 inhibitory activity (NTRK1) | pIC50 (A549 (lung cancer cells)) | pIC50 [1] | pIC50 [2] | pIC50 [3] | pIC50 [4] | pIC50 [5] | pIC50 (A549 (lung cancer cells); Homo sapiens, 72 h) | pIC50 ([1]; Homo sapiens, HCT-116, 72 h) | pIC50 ([2]; Homo sapiens, 72 h) | pIC50 ([3]; 72 h) | pIC50 ([4]; Homo sapiens, SK-HEP1, 72 h) | pIC50 ([5]; Homo sapiens, SNU-638, 72 h)
Nc1ncnc2c1c(-c1cccs1)cn2[C@@H]1SC[C@@H](O)[C@H]1O [Compound 13c] | +++ | ++ | ++ | +++ | 5.54 | 5.47 | 5.29 | 5.15 | 5.56 | 5.39 |  |  |  |  |  | 
N#Cc1cn([C@@H]2SC[C@@H](O)[C@H]2O)c2ncnc(N)c12 [Compound 13f] | ++ | ++ | +++ | ++ | 5.63 | 5.20 | 5.62 | 5.61 | 5.24 | 5.03 |  |  |  |  |  | 
NC(=O)c1cn([C@@H]2S[C@H](CO)[C@@H](O)[C@H]2O)c2ncnc(N)c12 [Compound 6, 4-amino-7-((2R,3R,4S,5R)-3,4-dihydroxy-5-(hydroxymethyl)tetrahydrothiophen-2-yl)-7H-pyrrolo[2,3-d]pyrimidine-5-carboxamide] | ++ | +++ | ++ | + |  |  |  |  |  |  | 5.70 | 5.87 | 5.68 | 5.74 | 5.78 | 5.95
NC(=O)c1cn([C@@H]2S[C@H](COC(=O)c3ccccc3)[C@@H](O)[C@H]2O)c2ncnc(N)c12 [Compound 7h] | +++ | +++ | +++ | ++ | 5.32 | 5.79 | 5.17 | 5.45 | 5.29 | 5.28 |  |  |  |  |  | 
C#Cc1cn([C@@H]2S[C@H](COC(=O)c3ccc(Cl)cc3)[C@@H](O)[C@H]2O)c2ncnc(N)c12 [Compound 7c] | ++ | ++ | ++ | ++ | 6.57 | 6.64 | 6.54 | 6.64 | 6.74 | 6.89 |  |  |  |  |  | 
CCC#Cc1cn([C@@H]2S[C@H](CO)[C@@H](O)[C@H]2O)c2ncnc(N)c12 [Compound 4b] | + | + | + | + | < 4.30 | < 4.30 | < 4.30 | < 4.30 | < 4.30 | < 4.30 |  |  |  |  |  | 
N#Cc1cn([C@@H]2S[C@H](CN=[N+]=[N-])[C@@H](O)[C@H]2O)c2ncnc(N)c12 [Compound 9b] | +++ | +++ | +++ | +++ | 6.64 | 6.25 | 6.42 | 6.35 | 5.98 | 6.92 |  |  |  |  |  | 
Nc1ncnc2c1c(C#CC1CC1)cn2[C@@H]1S[C@H](CO)[C@@H](O)[C@H]1O [Compound 4d] | + | − | − | ++ | < 4.30 | < 4.30 | 4.51 | < 4.30 | 5.08 | < 4.30 |  |  |  |  |  | 
Nc1ncnc2c1c(-c1ccco1)cn2[C@@H]1S[C@H](COC(=O)c2ccccc2)[C@@H](O)[C@H]1O [Compound 7a] | ++ | +++ | +++ | +++ | 5.22 | 5.66 | 5.08 | < 4.30 | 5.97 | 5.45 |  |  |  |  |  | 
NC[C@H]1S[C@@H](n2cc(C(N)=O)c3c(N)ncnc32)[C@H](O)[C@@H]1O [Compound 10c] | ++ | ++ | ++ | ++ | 5.60 | 5.86 | 5.61 | 5.56 | 5.75 | 5.59 |  |  |  |  |  | 
N#Cc1cn([C@@H]2S[C@H](COC(=O)c3ccccc3)[C@@H](O)[C@H]2O)c2ncnc(N)c12 [Compound 7g] | +++ | +++ | +++ | ++ | 5.59 | 5.44 | 5.81 | 5.53 | 5.25 | 5.42 |  |  |  |  |  | 

Continued, values first:

CSNK1D inhibitory activity (CSNK1D) | DYRK1A inhibitory activity (DYRK1A) | DYRK1B inhibitory activity (DYRK1B) | NTRK1 inhibitory activity (NTRK1) | pIC50 (A549 (lung cancer cells)) | pIC50 [1] | pIC50 [2] | pIC50 [3] | pIC50 [4] | pIC50 [5] | pIC50 (A549 (lung cancer cells); Homo sapiens, 72 h) | pIC50 ([1]; Homo sapiens, HCT-116, 72 h) | pIC50 ([2]; Homo sapiens, 72 h) | pIC50 ([3]; 72 h) | pIC50 ([4]; Homo sapiens, SK-HEP1, 72 h) | pIC50 ([5]; Homo sapiens, SNU-638, 72 h) | Structure (SMILES)
+++ | ++ | ++ | ++ | 5.12 | 5.20 | 5.05 | 5.04 | 5.11 | 5.20 |  |  |  |  |  |  | Nc1ncnc2c1c(-c1ccccc1)cn2[C@@H]1S[C@H](CO)[C@@H](O)[C@H]1O [Compound 2b]
++ | ++ | ++ | ++ | 5.36 | 5.55 | 5.27 | 5.27 | 5.29 | 5.45 |  |  |  |  |  |  | C=Cc1cn([C@@H]2SC[C@@H](O)[C@H]2O)c2ncnc(N)c12 [Compound 13e]
+++ | ++ | ++ | +++ |  |  |  |  |  |  | 4.91 | 4.89 | 4.84 | 4.85 | 4.89 | 4.97 | C#Cc1cn([C@@H]2S[C@H](CNCC)[C@@H](O)[C@H]2O)c2ncnc(N)c12 [Compound 11b, (2R,3R,4S,5R)-2-(4-amino-5-ethynyl-7H-pyrrolo[2,3-d]pyrimidin-7-yl)-5-((ethylamino)methyl)tetrahydrothiophene-3,4-diol]
++ | ++ | ++ | +++ | 7.15 | 7.42 | 7.13 | 7.11 | 7.30 | 7.32 |  |  |  |  |  |  | C#Cc1cn([C@@H]2S[C@H](COC(=O)c3ccncc3)[C@@H](O)[C@H]2O)c2ncnc(N)c12 [Compound 7f]
++ | +++ | +++ | ++ | 5.42 | 5.56 | 5.32 | 5.61 | 5.79 | 5.83 |  |  |  |  |  |  | N#Cc1cn([C@@H]2S[C@H](CN)[C@@H](O)[C@H]2O)c2ncnc(N)c12 [Compound 10b]
